Source: PMC9841524, “Structure-Based Rational Design of Small α-Helical Peptides with Broad-Spectrum Activity against Multidrug-Resistant Pathogens” (Journal of Medicinal Chemistry, 2022)
Converted amounts (≈) assume the structure as drawn. Read-outs that look alike come from different tables or passages of the source. Where no end group is shown, it is not given here.

Columns and labels:
MRSA (ATCC BAA-1556) [1] = test: Bactericidal kinetic assay; assay type: cell-based, methicillin-resistant S. aureus; settings: 4 × MIC
Experimental: The time course of bacterial killing was studied by the exposure of overnight grown cultures of MRSA (ATCC BAA-1556) and E. coli (ATCC BAA-2452) to 8a and 8b at the MIC and 4× the MIC in Muller Hinton media. Bacterial cells (2 × 10^6 CFU/mL) were treated with peptides and standard antibiotics and incubated at 37 °C. Aliquots were withdrawn at a 30 min time interval for 4 h and plated on the agar plate to determine the number of viable bacterial colonies. Data were obtained from two independent experiments performed in triplicate.

MRSA (ATCC BAA-1556) [2] = test: Flow cytometric analysis of PI-stained cells; assay type: cell-based, methicillin-resistant S. aureus; settings: MIC and 4 × MIC, 1 h, flow cytometry
Experimental: The flow cytometric analysis was performed by using MRSA (ATCC BAA-1556) and E. coli (ATCC BAA-2452) cultures grown to the mid log phase in Mueller Hinton broth (HIMEDIA). Before treatment, bacterial cells were washed thrice with buffer (10 mM Tris, pH 7.4) and resuspended in the same buffer to obtain 10^7 CFU/mL bacterial suspensions. Test peptides (8a and 8b) and the standard antibiotics (daptomycin and polymyxin B) at MIC and 4 × MIC were incubated with bacterial suspension for 1 h. Following the treatment with test peptides, the cells were pelleted by centrifugation at 3000g for 15 min in a microcentrifuge. The supernatant was decanted, and the cells were washed with PBS several times and then incubated with PI ([…]) in the dark for 15 min at 37 °C. FACS analysis of the stained bacterial cells was performed using a FACscan flow cytometer (BD Accuri C6, BD Biosciences, California, USA), and data were analyzed by using Cell Quest software.

[3] = system: Bacillus subtilis (ATCC 6633)
Outline: (§1)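 In this CLSI-recommended assay, peptides were serially diluted twofold and combined with bacteria at 10^6 CFU/mL in cation-adjusted Mueller Hinton Broth.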

[4] = system: S. pneumoniae (ATCC 700677); settings: Gram-positive, multi-drug resistant (penicillin, tetracycline, erythromycin); CAMHB + 2.5% lysed horse blood, 37 °C, 24 h; highest MIC of three independent experiments in triplicate
Outline: as §1

MRSA (ATCC BAA-1556) [5] = settings: for MIC, MRSA (ATCC BAA-1556), Control: MH media without salt ions or serum; for MIC, MRSA (ATCC BAA-1556), Control / MIC, MRSA (ATCC BAA-1556), MgCl2 / MIC, MRSA (ATCC BAA-1556), CaCl2 / MIC, MRSA (ATCC BAA-1556), KCl / MIC, MRSA (ATCC BAA-1556), NH4Cl / MIC, MRSA (ATCC BAA-1556), NaCl / MIC, MRSA (ATCC BAA-1556), FBS (25%): three independent experiments in triplicate; for MIC, MRSA (ATCC BAA-1556): broth microdilution (CLSI), CAMHB, 37 °C, 24 h; for MIC, MRSA (ATCC BAA-1556), MgCl2: media with 1 mM MgCl2; for MIC, MRSA (ATCC BAA-1556), CaCl2: media with 2 mM CaCl2; for MIC, MRSA (ATCC BAA-1556), KCl: media with 4.5 mM KCl; for MIC, MRSA (ATCC BAA-1556), NH4Cl: media with 6 mM NH4Cl; for MIC, MRSA (ATCC BAA-1556), NaCl: media with 150 mM NaCl; for MIC, MRSA (ATCC BAA-1556), FBS (25%): media with 25% fetal bovine serum
Outline: as §1

[6] = Calcein dye leakage assay; settings: after 100 min, 10% Triton X-100 = 100%, triplicate
Experimental: The calcein dye leakage assay was conducted using the large unilamellar vesicles (LUVs) composed of 1,2-dioleoyl-sn-glycero-3-phosphocholine (DOPC) and 1,2-dioleoyl-sn-glycero-3-phosphoglycerol (DOPG) to mimic the bacterial membrane (DOPC/DOPG, 7:3, w/w) or mammalian membrane (DOPC/cholesterol, 10:1, w/w), as we described previously.[18] At various concentrations (5, 10, 20, 30, and 50 μg/mL) test peptides 8a and 8b (50 μL) mixed with liposome suspension (50 μL), and fluorescence intensity was read every 10 min for 100 min at an excitation wavelength of 490 nm and an emission wavelength of 520 nm on a SpectraMax M5 multi-mode microplate reader. Considering calcein release from liposomes treated with a 10% solution (w/v) of Triton X-100 as 100%, the apparent percentage of dye leakage was calculated using the following formula [drawing 2] where F is the intensity measured at a given peptide concentration, F0 is the background intensity of the liposome sample, and Ft is the intensity after lysis induced by Triton X-100.

[7] = system: P. aeruginosa (ATCC 27883); test: MIC, standard microtiter dilution (CLSI); assay type: cell-based, Pseudomonas aeruginosa; settings: broth microdilution (CLSI), CAMHB, 37 °C, 24 h
Outline: as §1

[8] = system: P. aeruginosa (ATCC 10145); settings: ATCC 10145, 24 h
Outline: as §1

[9] = system: Klebsiella pneumonia (ATCC 13883); settings: ATCC 13883, 24 h
Outline: as §1

[10] = system: K. pneumonia (ATCC BAA-2470); settings: Gram-negative, carbapenem-resistant; CLSI microdilution, CAMHB, 37 °C, 24 h; highest MIC of three independent experiments in triplicate
Outline: as §1

[11] = 10^6 CFU/mL, highest MIC of three independent experiments in triplicate

CCCCCCCCCC(=O)N[C@@H](Cc1c[nH]c2ccccc12)C(=O)N[C@H](CC(N)=O)C(=O)N[C@@H](CC(=O)O)C(=O)N[C@@H]1C(=O)NCC(=O)N[C@@H](CCCN)C(=O)N[C@@H](CC(=O)O)C(=O)N[C@H](C)C(=O)N[C@@H](CC(=O)O)C(=O)NCC(=O)N[C@H](CO)C(=O)N[C@@H]([C@H](C)CC(=O)O)C(=O)N[C@@H](CC(=O)c2ccccc2N)C(=O)O[C@@H]1C [daptomycin, reference compound]
time to complete killing of MRSA at 4 × MIC (MRSA (ATCC BAA-1556) [1]): 3 h | PI-stained population of MRSA cells (MRSA (ATCC BAA-1556) [2]): did not significantly increase | MIC, Bacillus subtilis (ATCC 6633) ([3]; Gram-positive, CLSI microdilution, CAMHB, 37 °C, 24 h, highest MIC of three independent experiments in triplicate): 0.7 µg/mL | MIC, S. pneumoniae (ATCC 700677) [4]: 12.5 µg/mL | MIC, MRSA (ATCC BAA-1556), Control (MRSA (ATCC BAA-1556) [5]): 1.5 µg/mL | MIC, MRSA (ATCC BAA-1556) (MRSA (ATCC BAA-1556) [5]; [11]): 1.5 µg/mL | MIC, MRSA (ATCC BAA-1556), MgCl2 (MRSA (ATCC BAA-1556) [5]): 3.1 µg/mL (≈ 1.91 µM) | MIC, MRSA (ATCC BAA-1556), CaCl2 (MRSA (ATCC BAA-1556) [5]): 3.1 µg/mL (≈ 1.91 µM) | MIC, MRSA (ATCC BAA-1556), KCl (MRSA (ATCC BAA-1556) [5]): 1.5 µg/mL (≈ 0.926 µM) | MIC, MRSA (ATCC BAA-1556), NH4Cl (MRSA (ATCC BAA-1556) [5]): 1.5 µg/mL (≈ 0.926 µM) | MIC, MRSA (ATCC BAA-1556), NaCl (MRSA (ATCC BAA-1556) [5]): 1.5 µg/mL (≈ 0.926 µM) | MIC, MRSA (ATCC BAA-1556), FBS (25%) (MRSA (ATCC BAA-1556) [5]): 3.1 µg/mL (≈ 1.91 µM) | MIC, MRSA (ATCC BAA-1556) (MRSA (ATCC BAA-1556) [5]; value in parentheses (μM)): 0.86 µM | calcein dye leakage, 50 μg/mL ([6]; bacterial membrane mimicking LUVs): 42% | calcein dye leakage, 50 μg/mL ([6]; mammalian membrane mimicking LUVs): around 7%

KWIKKWIKWWKK-NH2 [7b]
MIC, P. aeruginosa (ATCC 27883) [7, 11]: 6.2 µg/mL | MIC, P. aeruginosa (ATCC 27883) ([7]; value in parentheses (μM)): 3.53 µM | MIC, P. aeruginosa (ATCC 10145) [8]: 6.2 µg/mL | MIC, Bacillus subtilis (ATCC 6633) ([3]; ATCC 6633, 24 h): 3.1 µg/mL | MIC, Klebsiella pneumonia (ATCC 13883) [9]: 25 µg/mL | MIC, S. pneumoniae (ATCC 700677) [4]: 25 µg/mL | MIC, K. pneumonia (ATCC BAA-2470) [10]: 25 µg/mL | MIC, MRSA (ATCC BAA-1556), Control (MRSA (ATCC BAA-1556) [5]): 6.2 µg/mL | MIC, MRSA (ATCC BAA-1556) (MRSA (ATCC BAA-1556) [5]; [11]): 6.2 µg/mL | MIC, MRSA (ATCC BAA-1556), MgCl2 (MRSA (ATCC BAA-1556) [5]): 6.2 µg/mL | MIC, MRSA (ATCC BAA-1556), CaCl2 (MRSA (ATCC BAA-1556) [5]): 12.5 µg/mL | MIC, MRSA (ATCC BAA-1556), KCl (MRSA (ATCC BAA-1556) [5]): 12.5 µg/mL | MIC, MRSA (ATCC BAA-1556), NH4Cl (MRSA (ATCC BAA-1556) [5]): 12.5 µg/mL | MIC, MRSA (ATCC BAA-1556), NaCl (MRSA (ATCC BAA-1556) [5]): 25 µg/mL | MIC, MRSA (ATCC BAA-1556), FBS (25%) (MRSA (ATCC BAA-1556) [5]): 25 µg/mL | MIC, MRSA (ATCC BAA-1556) (MRSA (ATCC BAA-1556) [5]; value in parentheses (μM)): 3.53 µM
